Tests used:
Experiment in all cases: relative viability (nuclei count vs DMSO), 5 days (fraction); higher = more cells survive
[1] = compound: CC1=C(C(=O)N2C=CSC2=N1)CCN3CCC(=C(C4=CC=CC=C4)C5=CC=C(C=C5)F)CC3 + Nc1ncn([C@H]2C[C@H](O)[C@@H](CO)O2)c(=O)n1 [Decitabine] (partner 2 µM)
Outline: (§1)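 Relative viability was taken as the ratio of nuclei in treated wells to nuclei in vehicle wells. Lung cancer cell lines in 1536-well plates received compounds by pin tool one day after seeding, either one drug alone or a fixed anchor-drug dose plus five library-drug doses (not always all listed) in √10 steps. Nuclei were counted on 4× images after 5 days of treatment, and values are medians of duplicate plates.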

[2] = compound: CC1=C(C(=O)N2C=CSC2=N1)CCN3CCC(=C(C4=CC=CC=C4)C5=CC=C(C=C5)F)CC3 + CC(C)C[C@H](NC(=O)[C@H](Cc1ccccc1)NC(=O)c1cnccn1)B(O)O [Bortezomib] (partner 0.002 µM)
Outline: as §1

[3] = compound: CC1=C(C(=O)N2C=CSC2=N1)CCN3CCC(=C(C4=CC=CC=C4)C5=CC=C(C=C5)F)CC3 + Cc1cc(Nc2cc(N3CCN(C)CC3)nc(Sc3ccc(NC(=O)C4CC4)cc3)n2)n[nH]1 [Tozasertib] (partner 0.1 µM)
Outline: as §1

[4] = compound: CC1=C(C(=O)N2C=CSC2=N1)CCN3CCC(=C(C4=CC=CC=C4)C5=CC=C(C=C5)F)CC3 + NC(=O)Nc1cc(-c2cccc(F)c2)sc1C(=O)N[C@H]1CCCNC1 [AZD7762] (partner 0.2 µM)
Outline: as §1

Cell Line | relative viability ([1]; first compound 0.08 µM) | relative viability ([1]; first compound 0.253 µM) | relative viability ([1]; first compound 0.8 µM) | relative viability ([1]; first compound 2.53 µM) | relative viability ([1]; first compound 8 µM) | relative viability ([2]; first compound 0.08 µM) | relative viability ([2]; first compound 0.253 µM) | relative viability ([2]; first compound 0.8 µM) | relative viability ([2]; first compound 2.53 µM) | relative viability ([2]; first compound 8 µM) | relative viability ([3]; first compound 0.08 µM) | relative viability ([3]; first compound 0.253 µM) | relative viability ([3]; first compound 0.8 µM) | relative viability ([3]; first compound 2.53 µM) | relative viability ([3]; first compound 8 µM) | relative viability ([4]; first compound 0.08 µM) | relative viability ([4]; first compound 0.253 µM) | relative viability ([4]; first compound 0.8 µM) | relative viability ([4]; first compound 2.53 µM) | relative viability ([4]; first compound 8 µM)
LCLC-103H | 0.685 | 0.702 | 0.69 | 0.826 | 0.646 | 1.06 | 1.06 | 0.957 | 1.22 | 0.903 | 0.437 | 0.449 | 0.451 | 0.486 | 0.532 | 0.923 | 0.766 | 0.781 | 0.822 | 0.655
NCI-H1975 | 0.347 | 0.507 | 0.36 | 0.408 | 0.353 | 0.35 | 0.329 | 0.368 | 0.434 | 0.362 | 0.852 | 0.63 | 0.816 | 0.922 | 0.37 | 0.658 | 0.76 | 0.769 | 0.738 | 0.618
NCI-H1944 | 0.462 | 0.43 | 0.413 | 0.433 | 0.417 |  |  |  |  |  | 0.26 | 0.273 | 0.226 | 0.224 | 0.204 | 0.482 | 0.491 | 0.461 | 0.469 | 0.43
SK-LU-1 | 0.593 | 0.555 | 0.709 | 0.615 | 0.535 | 1.08 | 0.965 | 1.05 | 1.19 | 1.01 | 0.307 | 0.286 | 0.288 | 0.283 | 0.295 |  |  |  |  | 
COR-L23 | 0.415 | 0.498 | 0.405 | 0.484 | 0.368 | 0.701 | 0.74 | 1.02 | 1.18 | 0.397 | 0.18 | 0.164 | 0.169 | 0.214 | 0.184 |  |  |  |  | 
NCI-H1648 | 0.528 | 0.587 | 0.513 | 0.456 | 0.453 |  |  |  |  |  | 0.391 |  |  | 0.392 | 0.525 | 0.722 | 0.628 | 0.727 | 0.667 | 0.443
SW 900 | 0.477 | 0.437 | 0.407 | 0.45 | 0.496 |  |  |  |  |  | 0.539 | 0.636 | 0.606 | 0.602 | 0.351 | 0.517 | 0.666 | 0.656 | 0.737 | 0.367
NCI-H2023 | 0.257 | 0.248 | 0.217 | 0.24 | 0.156 | 1.2 | 0.905 | 0.917 | 1.08 | 0.736 | 0.446 | 0.265 | 0.393 | 0.44 | 0.272 |  |  |  |  | 
NCI-H1793 | 0.433 | 0.558 | 0.502 | 0.505 | 0.416 |  |  |  |  |  | 0.354 | 0.339 | 0.312 | 0.362 | 0.258 | 0.457 | 0.408 | 0.597 | 0.381 | 0.378
NCI-H1395 | 0.718 | 0.782 | 0.652 | 0.688 | 0.674 |  |  |  |  |  | 0.809 | 0.868 | 0.697 | 0.765 | 0.686 | 0.384 | 0.457 | 0.391 | 0.419 | 0.383
NCI-H2170 | 0.522 | 0.461 | 0.487 | 0.457 | 0.395 |  |  |  |  |  | 0.704 | 0.804 | 0.741 | 0.781 | 0.404 | 0.696 | 0.884 | 0.932 | 0.76 | 0.462
NCI-H522 | 0.729 | 0.629 | 0.793 | 0.592 | 0.686 |  |  |  |  |  | 0.551 | 0.92 | 0.555 | 0.523 | 0.583 | 0.927 | 0.874 | 0.789 | 0.721 | 0.747
A549 | 0.206 | 0.249 | 0.266 | 0.282 | 0.194 |  |  |  |  |  |  |  |  |  |  |  |  |  |  | 
NCI-H520 | 0.471 | 0.565 | 0.519 | 0.515 | 0.445 | 0.615 | 0.485 | 0.57 | 0.999 | 0.523 | 0.514 | 0.435 | 0.439 | 0.464 | 0.401 |  |  |  |  | 
NCI-H358 | 0.211 | 0.235 | 0.244 | 0.256 | 0.202 |  |  |  |  |  | 0.0851 | 0.0942 | 0.0998 | 0.129 | 0.112 | 0.555 | 0.487 |  | 0.462 | 0.477
NCI-H1650 | 0.372 | 0.485 | 0.505 | 0.435 | 0.329 | 0.216 | 0.193 | 0.21 | 0.234 | 0.227 | 0.402 | 0.428 | 0.463 | 0.372 | 0.363 |  |  |  |  | 
COR-L 105 | 0.59 | 0.629 | 0.71 | 0.719 | 0.509 | 0.83 | 0.691 | 0.75 | 0.919 | 0.568 | 0.322 | 0.346 | 0.34 | 0.388 | 0.345 |  |  |  |  | 
Calu-6 |  |  |  |  |  | 1.05 | 1.14 | 0.933 | 1.02 | 0.767 |  |  |  |  |  |  |  |  |  | 
NCI-H2009 | 0.396 | 0.393 | 0.396 | 0.396 | 0.369 | 1.25 | 1.11 | 0.986 | 1.03 | 0.88 | 0.775 | 0.668 | 0.738 | 0.756 | 0.478 |  |  |  |  | 
NCI-H1703 |  |  |  |  |  | 0.262 | 0.316 | 0.256 | 0.359 | 0.263 |  |  |  |  |  | 0.14 | 0.139 | 0.194 | 0.117 | 0.132
SW 1573 | 0.453 | 0.524 | 0.505 | 0.633 | 0.447 | 1.26 | 1.16 | 1.05 | 1.06 | 0.649 |  | 0.211 | 0.157 | 0.203 | 0.21 |  |  |  |  | 
NCI-H661 | 0.528 | 0.623 | 0.55 | 0.528 | 0.387 | 0.764 | 0.776 | 0.88 | 0.871 | 0.697 | 0.341 | 0.35 | 0.36 | 0.383 | 0.361 |  |  |  |  | 
NCI-H1792 | 0.312 | 0.561 | 0.614 | 0.426 | 0.19 | 0.742 | 0.614 | 0.976 | 0.77 | 0.438 |  |  |  |  |  | 0.649 | 0.655 | 0.62 | 0.636 | 0.386

Source: the supplement of paper PMC10307832
